“Also recorded” adds a separate entry of the source. Ends that are not written are not given here.
Tests used:
Assay type in all cases: cell-based
MDA-MB-231 cells [1] = experiment: Cell viability (MTT, photomicrographs) in MDA-MB-231 cells; details: 16 μM peptide, 24 hours
Procedure: (§1) After culturing 3×10^3 MDA-MB-231 cells in a 96-well plate for 24 hours under conditions of 37° C. and 5% C02, the cells were either untreated or treated with the peptides of Examples 1 to 28 at a concentration of 16 μM, respectively. Then, the cells were cultured for 24 hours under conditions of 37° C. and 5% CO2, and 10 μl of 3-(4,5-dimethylthiazol-2-yl)-2,5-diphenyltetrazolium bromide reagent was added to each well, followed by reaction for 1 hour. After the reaction was completed, the reagent was removed, 200 μl of dimethyl sulfoxide was added to each well, and the absorbance was measured to confirm cell viability.

MDA-MB-231 cells [2] = experiment: ADP-ribose level by ELISA in MDA-MB-231 cells; details: 0.2-32 μM peptide, 24 hours
Procedure: (§2) The peptides of Examples 1 to 28 of the present disclosure are designed to inhibit the action of poly ADP-ribose degradation enzyme. In Experimental Example 1, it was confirmed through cell experiments whether poly ADP-ribose was inhibited from being degraded by each of the peptides and accumulated in cancer cells.
5×10^3 MDA-MB-231 cells were divided into a group not treated with the Example peptide and a group treated with 0.2, 1, 2, 4, 8, 16, and 32 μM of the peptide of Example 5 (SEQ ID NO: 5), and cultured for 24 hours under conditions of 37° C. and 5% CO2 in Leibovitz's L-15 medium supplemented with 10% FBS, 100 units/ml penicillin, and 100 μg/ml streptomycin. The medium of the cultured cells was removed, and the samples were treated with RIPA buffer and 1% SDS. The prepared supernatant was used for ELISA analysis to detect and analyze ADP-ribose.

HDPC = experiment: Cytotoxicity in normal cells HDPC; details: HDPC human dermal papilla cell, 25, 50 and 100 μM, 24, 48 or 72 hours; listed as SEQ ID NO: 7
Procedure: (§3) As normal cells for testing, CCD-18Co, which is a human colon fibroblast, and HDPC, which is a human dermal papilla cell, were used. Further, the peptide of SEQ ID NO: 7 was used as a representative peptide of Examples of the present disclosure.
(§4) First, 5×10^3 cells of each normal cell were inoculated into a 96-well plate and cultured in DMEM medium for 24 hours under conditions of 37° C. and 5% CO2. The respective wells were divided into a group untreated with the peptide and groups treated with the peptide of SEQ ID NO: 7 (25, 50, and 100 μM, respectively), and tested.

CCD-18Co = experiment: Cytotoxicity in normal cells CCD-18Co; details: CCD-18Co human colon fibroblast, 25, 50 and 100 μM, 24, 48 or 72 hours; listed as SEQ ID NO: 7
Procedure: as §3, §4

HCT116 cells [3] = experiment: Cell viability (MTT, photomicrographs) in HCT116 cells; details: 16 μM peptide, 24 hours
Procedure: as §1, with “HCT116” for “MDA-MB-231”, “CO2,” for “C02,”

HCT116 cells [4] = experiment: ADP-ribose level by ELISA in HCT116 cells; details: 0.2-32 μM peptide, 24 hours
Procedure: as §2
(§5) 5×10^5 HCT116 cells were divided into a group not treated with the peptide of Example and a group treated with 0.2, 1, 2, 4, 8, 16, and 32 μM of the peptide of Example 6 (SEQ ID NO: 6), and cultured for 24 hours under conditions of 37° C. and 5% CO2 in McCoy's 5A medium supplemented with 10% FBS, 100 units/ml penicillin, and 100 μg/ml streptomycin. The medium of the cultured cells was removed, and the samples were treated with RIPA buffer and 1% SDS. The prepared supernatant was used for ELISA analysis to detect and analyze ADP-ribose.

Hep G2 cells [5] = experiment: Cell viability (MTT, photomicrographs) in Hep G2 cells; details: 16 μM peptide, 24 hours
Procedure: 2-4. Change in viability in Hep G2 cells according to treatment with ADP-ribose binding peptide After culturing 3×10^3 Hep G2 cells in a 96-well plate for 24 hours under conditions of 37° C. and 5% CO2, the cells were either untreated or treated with the peptides of Examples 1 to 28 at a concentration of 16 μM, respectively. Then, the cells were cultured for 24 hours under conditions of 37° C. and 5% CO2, and 10 μl of 3-(4,5-dimethylthiazol-2-yl)-2,5-diphenyltetrazolium bromide reagent was added to each well, followed by reaction for 1 hour. After the reaction was completed, the reagent was removed, 200 μl of dimethyl sulfoxide was added to each well, and the absorbance was measured to confirm cell viability.

Hep G2 cells [6] = experiment: ADP-ribose level by ELISA in Hep G2 cells; details: 0.2-32 μM peptide, 24 hours
Procedure: as §2
as §5, with “5×10^5 Hep G2” for “5×10^5 HCT116”, “Example 4” for “Example 6”, “NO: 4),” for “NO: 6),”, “in EMEM” for “in McCoy's 5A”

Aspc-1 cells = experiment: Viability of Aspc-1 cells, gemcitabine alone or combined with peptides; details: 1 nM gemcitabine alone, 24 hours
Procedure: as §1, with “3×10^3 Aspc-1” for “3×10^3 MDA-MB-231”, “5% CO2,” for “5% C02,”, “were treated with 1 nM gemcitabine alone” for “were either untreated”, “or in combination” for “or treated”, “Examples 15” for “Examples 1”, “of 0.2, 1 or 8 μM.” for “of 16 μM, respectively.”

H1975 cells = experiment: Viability of H1975 cells, osimertinib alone or combined with peptides; details: Homo sapiens, NCI-H1975, 1 nM osimertinib alone, 24 hours, read-out: viable cancer cells
Procedure: as §1, with “H1975” for “MDA-MB-231”, “CO2,” for “C02,”, “treated with 1 nM osimertinib alone” for “either untreated”, “in combination” for “treated”, “14” for “28”, “0.2, 1 or 8 μM.” for “16 μM, respectively.”

Caki-1 cells [7] = experiment: ADP-ribose level by ELISA in Caki-1 cells; details: 0.2-32 μM peptide, 24 hours
Procedure: as §2
as §5, with “5×10^5 Caki-1” for “5×10^5 HCT116”, “Example 7” for “Example 6”, “NO: 7),” for “NO: 6),”

Caki-1 cells [8] = experiment: Cell viability (MTT, photomicrographs) in Caki-1 cells; details: 16 μM peptide, 24 hours
Procedure: as §1, with “Caki-1” for “MDA-MB-231”, “CO2,” for “C02,”

MDA-MB-231 cells [9] = experiment: Viability of MDA-MB-231 cells, docetaxel alone or combined with peptides; details: 50 μM docetaxel alone, 24 hours
Procedure: as §1, with “5% CO2,” for “5% C02,”, “were treated with 50 μM docetaxel alone” for “were either untreated”, “or in combination” for “or treated”, “Examples 15” for “Examples 1”, “of 0.2, 1 or 8 μM.” for “of 16 μM, respectively.”, “CO2,” for “CO2, and”

U-87MG cells = experiment: Viability of U-87MG cells, bevacizumab alone or combined with peptides; set-up: dose or concentration left out as unconfirmed; details: bevacizumab alone, 24 hours
Procedure: as §1, with “U-87MG” for “MDA-MB-231”, “CO2,” for “C02,”, “treated with 18 mM of bevacizumab alone” for “either untreated”, “in combination” for “treated”, “14” for “28”, “0.2, 1 or 8 μM.” for “16 μM, respectively.”

FCYLIYFNSMSQMNRQTRRRRRLRR (ADP-ribose binding peptide) [Example 5]
cancer cell growth and survival (MDA-MB-231 cells [1]): inhibited from growing and killed
amount of increase in ADP-ribose (fold change) compared to the control group (MDA-MB-231 cells [2]): significant increase in the amount of ADP-ribose in a concentration-dependent manner

FSYKIDFAEMKQMNLTTGKQRLIKR [Example 7]
cytotoxicity to normal cells versus untreated control (HDPC): no significant difference; also recorded: no toxicity was shown
cytotoxicity to normal cells versus untreated control (CCD-18Co): no significant difference; also recorded: no toxicity was shown

FSYVIDENTMGQINRQTQRQRRVRR [Example 6]
cancer cell growth and survival (HCT116 cells [3]): inhibited from growing and killed
amount of increase in ADP-ribose (fold change) compared to the control group (HCT116 cells [4]): significant increase in the amount of ADP-ribose in a concentration-dependent manner

RHYTVNLNTYTATDTKGHSLSVQR (ADP-ribose binding peptide) [Example 12]
cancer cell growth and survival (MDA-MB-231 cells [1]): inhibited from growing and killed
amount of increase in ADP-ribose (fold change) compared to the control group (MDA-MB-231 cells [2]): significant increase in the amount of ADP-ribose in a concentration-dependent manner

FLYVADLENMVQYRRNEHGRRRKIKR (ADP-ribose binding peptide) [Example 11]
cancer cell growth and survival (Hep G2 cells [5]): inhibited from growing and killed
amount of increase in ADP-ribose (fold change) compared to the control group (Hep G2 cells [6]): significant increase in the amount of ADP-ribose in a concentration-dependent manner

Nc1ccn([C@@H]2O[C@H](CO)[C@@H](O)C2(F)F)c(=O)n1 [gemcitabine]
cancer cells survived (Aspc-1 cells): about 50%

C=CC(=O)Nc1cc(Nc2nccc(-c3cn(C)c4ccccc34)n2)c(OC)cc1N(C)CCN(C)C [osimertinib]
viability at 0.001 µM (H1975 cells): ~49%

TAYEASVCDYLEQQVARGN (ADP-ribose binding peptide) [Example 14]
amount of increase in ADP-ribose (fold change) compared to the control group (Caki-1 cells [7]): significant increase in the amount of ADP-ribose in a concentration-dependent manner
cancer cell growth and survival (Caki-1 cells [8]): inhibited from growing and killed

RVYTIDENSMQQINEDTGTARAIQR (RVYTIDFNSMQQINEDTGTARAIQR; ADP-ribose binding peptide) [Example 4]
cancer cell growth and survival (Hep G2 cells [5]): inhibited from growing and killed
amount of increase in ADP-ribose (fold change) compared to the control group (Hep G2 cells [6]): significant increase in the amount of ADP-ribose in a concentration-dependent manner

CC(=O)O[C@@]12CO[C@@H]1C[C@H](O)[C@@]1(C)C(=O)[C@H](O)C3=C(C)[C@@H](OC(=O)[C@H](O)[C@@H](NC(=O)OC(C)(C)C)c4ccccc4)C[C@@](O)([C@@H](OC(=O)c4ccccc4)[C@H]21)C3(C)C [docetaxel]
cancer cells survived (MDA-MB-231 cells [9]): about 52%

bevacizumab
viable cancer cells (U-87MG cells): about 49%

GRYDVHLGERMRYAVYWDELASEVRR (ADP-ribose binding peptide) [Example 13]
cancer cell growth and survival (HCT116 cells [3]): inhibited from growing and killed
amount of increase in ADP-ribose (fold change) compared to the control group (HCT116 cells [4]): significant increase in the amount of ADP-ribose in a concentration-dependent manner

Reference: patent US20230416316A1, “ADP-RIBOSE BINDING PEPTIDES WITH ANTI-CANCER ACTIVITY AND USE THEREOF” (PearlsInMires Co., Ltd., priority 2021, published 2023)
